Measurements reported in US20080317807A1, “STRONTIUM FORTIFIED CALCIUM NANO-AND MICROPARTICLE COMPOSITIONS AND METHODS OF MAKING AND USING THEREOF” (The University of Hong Kong, priority 2007, published 2008).

Tests used:
[1] = test system: osteoporotic mice model induced by parathyroid hormone; conditions: cited from earlier work
[2] = test system: fibroblast and pre-osteoblastic enriched cell populations; conditions: cited from earlier work
[3] = test system: osteoblast differentiation; assay: Osteoblast differentiation by ALP staining and ALP quantification; type: cell-based
Text: It was also observed that the administration of strontium promoted osteoblast differentiation. This was confirmed via alkaline phosphatase (ALP) staining and ALP quantification.

[4] = test system: mature osteoblast; conditions: Strontium concentrations of 10^−3M or higher; cited from earlier work
[5] = test system: rats; conditions: cited from earlier work

N#Cc1c(N(CC(=O)[O-])CC(=O)[O-])sc(C(=O)[O-])c1CC(=O)[O-].[Sr+2].[Sr+2] [strontium ranelate]
Bone resorption [1]: inhibited bone resorption
Increase of DNA synthesis [2]: three- to four

[Sr+2] [strontium]
Matrix mineralization of osteoprogenitors [3]: increased matrix mineralization
Osteoblast differentiation (ALP staining and quantification) ([3]; particularly after 14 days): increased osteoblast differentiation
Increase of collagen and non-collagenic protein synthesis [4]: 34%
Increase of alkaline phosphatase activities, female rats ([5]; female rats): 56%
Increase of alkaline phosphatase activities, male rats ([5]; male rats): 53%
Plasma IGF-1, males ([5]; males, after 104 weeks of treatment): Significant increase
